In this assay the test system is E. coli strain isolated from a patient with a urinary tract infection. Briefly: microbe, parasite or virus in culture. The following applies: Escherichia coli, read-out: minimum inhibitory concentration.

Converted amounts (≈) assume the structure as drawn.

`O=C1CN(/N=C/c2ccc([N+](=O)[O-])o2)C(=O)N1` [nit, Nitrofurantoin]: the MIC came out at 64 µg/mL (≈ 269 µM).
